Eight cell lines from the supplement of paper PMC10307832 can be followed below.

What all share (experiment): relative viability (nuclei count vs DMSO), 5 days (fraction); higher = more cells survive
Compound in the test “Venetoclax + Crizotinib”: CC1(C)CCC(CN2CCN(c3ccc(C(=O)NS(=O)(=O)c4ccc(NCC5CCOCC5)c([N+](=O)[O-])c4)c(Oc4cnc5[nH]ccc5c4)c3)CC2)=C(c2ccc(Cl)cc2)C1 [Venetoclax] + C[C@@H](Oc1cc(-c2cnn(C3CCNCC3)c2)cnc1N)c1c(Cl)ccc(F)c1Cl [Crizotinib] (partner 1 µM)
Summed up:
(§1)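 Each reported value is a median over duplicate plates. It expresses relative viability: treated-well nuclei count divided by vehicle-well nuclei count. Lung cancer cell lines in 1536-well plates were dosed by pin tool a day after seeding, alone with one drug or with a fixed anchor-drug dose plus five library-drug doses (not always all listed) in √10 steps, and nuclei were counted after 5 days.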

Compound in the test “Selumetinib + Bortezomib”: Cn1cnc2c(F)c(Nc3ccc(Br)cc3Cl)c(C(=O)NOCCO)cc21 [Selumetinib] + CC(C)C[C@H](NC(=O)[C@H](Cc1ccccc1)NC(=O)c1cnccn1)B(O)O [Bortezomib] (partner 0.002 µM)
The essentials:
as §1

Compound in the test “Venetoclax + Bortezomib”: CC1(C)CCC(CN2CCN(c3ccc(C(=O)NS(=O)(=O)c4ccc(NCC5CCOCC5)c([N+](=O)[O-])c4)c(Oc4cnc5[nH]ccc5c4)c3)CC2)=C(c2ccc(Cl)cc2)C1 [Venetoclax] + CC(C)C[C@H](NC(=O)[C@H](Cc1ccccc1)NC(=O)c1cnccn1)B(O)O [Bortezomib] (partner 0.002 µM)
The essentials: as §1

Compound in the test “Selumetinib + AZD7762”: Cn1cnc2c(F)c(Nc3ccc(Br)cc3Cl)c(C(=O)NOCCO)cc21 [Selumetinib] + NC(=O)Nc1cc(-c2cccc(F)c2)sc1C(=O)N[C@H]1CCCNC1 [AZD7762] (partner 0.2 µM)
The essentials: as §1

NCI-H2126: the relative viability was 0.986 in the test with Venetoclax + Crizotinib (first compound 0.01 µM); 1.02 in the test with Venetoclax + Crizotinib (first compound 0.03162 µM); 1.04 with Venetoclax + Crizotinib (first compound 0.1 µM); 0.971 in the test with Venetoclax + Crizotinib (first compound 0.3162 µM); 0.969 with Venetoclax + Crizotinib (first compound 1 µM); 1.09 in the test with Selumetinib + Bortezomib (first compound 0.02 µM). The relative viability with Selumetinib + Bortezomib (first compound 0.06325 µM) is 1.01; with Selumetinib + Bortezomib (first compound 0.2 µM), 0.984; in the test with Selumetinib + Bortezomib (first compound 0.6325 µM) it was 0.996; in the test with Venetoclax + Bortezomib (first compound 0.01 µM), 1.05; with Venetoclax + Bortezomib (first compound 0.03162 µM), 1.12; in the test with Venetoclax + Bortezomib (first compound 0.1 µM), 1.09. Besides, the relative viability came out at 1.14 with Venetoclax + Bortezomib (first compound 0.3162 µM); 1.11 with Venetoclax + Bortezomib (first compound 1 µM); 1.03 in the test with Selumetinib + AZD7762 (first compound 0.02 µM); 0.981 with Selumetinib + AZD7762 (first compound 0.06325 µM); 0.987 with Selumetinib + AZD7762 (first compound 0.2 µM); 0.903 in the test with Selumetinib + AZD7762 (first compound 0.6325 µM).
With LCLC-103H, the relative viability with Venetoclax + Crizotinib (first compound 0.01 µM) came out at 1.05; in the test with Venetoclax + Crizotinib (first compound 0.03162 µM) it was 1.2; in the test with Venetoclax + Crizotinib (first compound 0.1 µM), 1.04; with Venetoclax + Crizotinib (first compound 0.3162 µM) it was 0.985; with Venetoclax + Crizotinib (first compound 1 µM), 1.05; with Selumetinib + Bortezomib (first compound 0.02 µM) it was 1.01. In addition, the relative viability with Selumetinib + Bortezomib (first compound 0.06325 µM) was 1.06; with Selumetinib + Bortezomib (first compound 0.2 µM) it was 0.993; in the test with Selumetinib + Bortezomib (first compound 0.6325 µM) it was 0.978; with Venetoclax + Bortezomib (first compound 0.01 µM), 1.02; with Venetoclax + Bortezomib (first compound 0.03162 µM), 1.04; in the test with Venetoclax + Bortezomib (first compound 0.1 µM), 1.16. Besides, the relative viability in the test with Venetoclax + Bortezomib (first compound 0.3162 µM) stood at 1.09; in the test with Venetoclax + Bortezomib (first compound 1 µM), 1.1; with Selumetinib + AZD7762 (first compound 0.02 µM), 0.722; with Selumetinib + AZD7762 (first compound 0.06325 µM), 0.761; with Selumetinib + AZD7762 (first compound 0.2 µM) it was 0.749; with Selumetinib + AZD7762 (first compound 0.6325 µM), 0.64.
HARA: the relative viability with Venetoclax + Crizotinib (first compound 0.01 µM) was found to be 0.946; in the test with Venetoclax + Crizotinib (first compound 0.03162 µM) it was 1.07; in the test with Venetoclax + Crizotinib (first compound 0.1 µM), 0.603; with Venetoclax + Crizotinib (first compound 0.3162 µM) it was 1.04; in the test with Venetoclax + Crizotinib (first compound 1 µM) it was 1.08; in the test with Selumetinib + Bortezomib (first compound 0.02 µM), 1.03. Besides, the relative viability in the test with Selumetinib + Bortezomib (first compound 0.06325 µM) turned out to be 1.07; in the test with Selumetinib + Bortezomib (first compound 0.2 µM) it was 1.01; in the test with Selumetinib + Bortezomib (first compound 0.6325 µM) it was 0.861; with Venetoclax + Bortezomib (first compound 0.01 µM), 1.14; with Venetoclax + Bortezomib (first compound 0.03162 µM) it was 1.13; with Venetoclax + Bortezomib (first compound 0.1 µM), 0.937. The relative viability with Venetoclax + Bortezomib (first compound 0.3162 µM) came out at 1.12; with Venetoclax + Bortezomib (first compound 1 µM), 1.1; in the test with Selumetinib + AZD7762 (first compound 0.02 µM) it was 0.38; with Selumetinib + AZD7762 (first compound 0.06325 µM), 0.34; with Selumetinib + AZD7762 (first compound 0.2 µM) it was 0.341; with Selumetinib + AZD7762 (first compound 0.6325 µM) it was 0.152.
Turning to NCI-H1792, the relative viability was found to be 0.938 with Venetoclax + Crizotinib (first compound 0.01 µM); 0.946 with Venetoclax + Crizotinib (first compound 0.03162 µM); 0.983 with Venetoclax + Crizotinib (first compound 0.1 µM); 0.98 in the test with Venetoclax + Crizotinib (first compound 0.3162 µM); 0.93 in the test with Venetoclax + Crizotinib (first compound 1 µM); 0.852 with Selumetinib + Bortezomib (first compound 0.02 µM). In addition, the relative viability came to 0.789 with Selumetinib + Bortezomib (first compound 0.06325 µM); 0.706 with Selumetinib + Bortezomib (first compound 0.2 µM); 0.677 in the test with Selumetinib + Bortezomib (first compound 0.6325 µM); 0.764 with Venetoclax + Bortezomib (first compound 0.01 µM); 0.928 in the test with Venetoclax + Bortezomib (first compound 0.03162 µM); 1.05 in the test with Venetoclax + Bortezomib (first compound 0.1 µM). Moreover, the relative viability with Venetoclax + Bortezomib (first compound 0.3162 µM) came out at 0.924; with Venetoclax + Bortezomib (first compound 1 µM) it was 0.86; with Selumetinib + AZD7762 (first compound 0.02 µM) it was 0.571; with Selumetinib + AZD7762 (first compound 0.06325 µM) it was 0.447; in the test with Selumetinib + AZD7762 (first compound 0.2 µM) it was 0.417; with Selumetinib + AZD7762 (first compound 0.6325 µM) it was 0.393.
For the cell line LXF-289, the relative viability with Venetoclax + Crizotinib (first compound 0.01 µM) is 0.832; with Venetoclax + Crizotinib (first compound 0.03162 µM), 0.816; in the test with Venetoclax + Crizotinib (first compound 0.1 µM) it was 0.776; with Venetoclax + Crizotinib (first compound 0.3162 µM), 0.798; with Venetoclax + Crizotinib (first compound 1 µM), 0.702; with Selumetinib + Bortezomib (first compound 0.02 µM), 0.934. The relative viability with Selumetinib + Bortezomib (first compound 0.06325 µM) is 0.891; with Selumetinib + Bortezomib (first compound 0.2 µM) it was 0.8; with Selumetinib + Bortezomib (first compound 0.6325 µM) it was 0.748; in the test with Venetoclax + Bortezomib (first compound 0.01 µM), 1.03; with Venetoclax + Bortezomib (first compound 0.03162 µM) it was 0.966; with Venetoclax + Bortezomib (first compound 0.1 µM), 1. The relative viability with Venetoclax + Bortezomib (first compound 0.3162 µM) came to 1.01; with Venetoclax + Bortezomib (first compound 1 µM), 0.87; with Selumetinib + AZD7762 (first compound 0.02 µM) it was 0.958; in the test with Selumetinib + AZD7762 (first compound 0.06325 µM) it was 0.887; with Selumetinib + AZD7762 (first compound 0.2 µM), 0.829; in the test with Selumetinib + AZD7762 (first compound 0.6325 µM), 0.85.
ChaGo-K-1: the relative viability was 1.1 with Venetoclax + Crizotinib (first compound 0.01 µM); 1.27 in the test with Venetoclax + Crizotinib (first compound 0.03162 µM); 1.16 in the test with Venetoclax + Crizotinib (first compound 0.3162 µM); 1.08 with Venetoclax + Crizotinib (first compound 1 µM); 0.959 in the test with Selumetinib + Bortezomib (first compound 0.02 µM); 0.993 with Selumetinib + Bortezomib (first compound 0.06325 µM). In addition, the relative viability with Selumetinib + Bortezomib (first compound 0.2 µM) came to 0.942; with Selumetinib + Bortezomib (first compound 0.6325 µM), 1.05; with Venetoclax + Bortezomib (first compound 0.01 µM), 1.08; with Venetoclax + Bortezomib (first compound 0.03162 µM), 1.11; in the test with Venetoclax + Bortezomib (first compound 0.3162 µM) it was 1.08; with Venetoclax + Bortezomib (first compound 1 µM), 0.926. Moreover, the relative viability was found to be 0.865 with Selumetinib + AZD7762 (first compound 0.02 µM), 0.845 in the test with Selumetinib + AZD7762 (first compound 0.06325 µM), 0.905 with Selumetinib + AZD7762 (first compound 0.2 µM) and 0.899 with Selumetinib + AZD7762 (first compound 0.6325 µM).
As for NCI-H2347, the relative viability with Venetoclax + Crizotinib (first compound 0.01 µM) was 0.74; in the test with Venetoclax + Crizotinib (first compound 0.03162 µM), 0.81; with Venetoclax + Crizotinib (first compound 0.1 µM), 0.726; with Venetoclax + Crizotinib (first compound 0.3162 µM), 0.533; with Venetoclax + Crizotinib (first compound 1 µM), 0.677; with Selumetinib + Bortezomib (first compound 0.02 µM), 0.755. Moreover, the relative viability in the test with Selumetinib + Bortezomib (first compound 0.06325 µM) worked out at 0.817; in the test with Selumetinib + Bortezomib (first compound 0.2 µM), 0.6; with Selumetinib + Bortezomib (first compound 0.6325 µM), 0.45; in the test with Venetoclax + Bortezomib (first compound 0.01 µM), 0.927; with Venetoclax + Bortezomib (first compound 0.03162 µM), 1.5; with Venetoclax + Bortezomib (first compound 0.1 µM), 1.14. Further, the relative viability with Venetoclax + Bortezomib (first compound 0.3162 µM) came out at 1.03; in the test with Venetoclax + Bortezomib (first compound 1 µM), 1.02; with Selumetinib + AZD7762 (first compound 0.02 µM) it was 0.678; with Selumetinib + AZD7762 (first compound 0.06325 µM), 0.568; with Selumetinib + AZD7762 (first compound 0.2 µM), 0.454; with Selumetinib + AZD7762 (first compound 0.6325 µM), 0.343.
For RERF-LC-KJ, the relative viability with Venetoclax + Crizotinib (first compound 0.01 µM) came to 0.742; with Venetoclax + Crizotinib (first compound 0.03162 µM) it was 0.872; with Venetoclax + Crizotinib (first compound 0.1 µM) it was 1.08; with Venetoclax + Crizotinib (first compound 0.3162 µM) it was 0.879; in the test with Venetoclax + Crizotinib (first compound 1 µM) it was 0.785; with Selumetinib + Bortezomib (first compound 0.02 µM), 1.05. Further, the relative viability worked out at 1.01 in the test with Selumetinib + Bortezomib (first compound 0.06325 µM); 0.92 with Selumetinib + Bortezomib (first compound 0.2 µM); 0.944 with Selumetinib + Bortezomib (first compound 0.6325 µM); 1.08 in the test with Venetoclax + Bortezomib (first compound 0.01 µM); 1.31 in the test with Venetoclax + Bortezomib (first compound 0.03162 µM); 1.19 with Venetoclax + Bortezomib (first compound 0.1 µM). Moreover, the relative viability in the test with Venetoclax + Bortezomib (first compound 0.3162 µM) came to 1.22; with Venetoclax + Bortezomib (first compound 1 µM), 1.05; with Selumetinib + AZD7762 (first compound 0.02 µM), 0.992; with Selumetinib + AZD7762 (first compound 0.06325 µM), 0.977; with Selumetinib + AZD7762 (first compound 0.2 µM), 0.892; in the test with Selumetinib + AZD7762 (first compound 0.6325 µM), 0.906.
